Active and inactive are the calls of the source. The calls are words filed in the database; no cut-off is given here.
Experiments:
[1] = Inhibition of human recombinant FLT3 using myelin basic protein as substrate in presence of ATP by ADP-Glo luminescence kinase assay
[2] = target: Casein kinase II subunit alpha (Homo sapiens, UniProt P68400); test: Inhibition of human recombinant full-length C-terminal His tagged-CK2 alpha expressed in Escherichia coli using tetra-methylbenzidine as substrate in presence of ATP by ELISA analysis
[3] = target: Mast/stem cell growth factor receptor Kit (Homo sapiens, UniProt P10721); test: Inhibition of human recombinant N-terminal GST tagged-c-KIT (544 to end residues) expressed in baculovirus infected Sf9 cells using Poly (Glu,Tyr) 4:1 as substrate in presence of ATP by ADP-Glo luminescence kinase assay
[4] = target: Cyclin-dependent kinase 2 (Homo sapiens, UniProt P24941); test: Inhibition of human CDK2 by ELISA analysis
[5] = target: Epidermal growth factor receptor (Homo sapiens, UniProt P00533); test: Inhibition of human recombinant GST tagged-EGFR using Poly (Glu,Tyr) 4:1 as substrate in presence of ATP by ADP-Glo luminescence kinase assay
Activin receptor type-1 = target: T1, Activin receptor type-1 (Homo sapiens, UniProt Q04771); test: Inhibition of human recombinant GST-tagged-ALK2 (147 to 509 residues) using Casein as substrate in presence of ATP by ADP-Glo luminescence assay
T1 sequence (Q04771 whole entry): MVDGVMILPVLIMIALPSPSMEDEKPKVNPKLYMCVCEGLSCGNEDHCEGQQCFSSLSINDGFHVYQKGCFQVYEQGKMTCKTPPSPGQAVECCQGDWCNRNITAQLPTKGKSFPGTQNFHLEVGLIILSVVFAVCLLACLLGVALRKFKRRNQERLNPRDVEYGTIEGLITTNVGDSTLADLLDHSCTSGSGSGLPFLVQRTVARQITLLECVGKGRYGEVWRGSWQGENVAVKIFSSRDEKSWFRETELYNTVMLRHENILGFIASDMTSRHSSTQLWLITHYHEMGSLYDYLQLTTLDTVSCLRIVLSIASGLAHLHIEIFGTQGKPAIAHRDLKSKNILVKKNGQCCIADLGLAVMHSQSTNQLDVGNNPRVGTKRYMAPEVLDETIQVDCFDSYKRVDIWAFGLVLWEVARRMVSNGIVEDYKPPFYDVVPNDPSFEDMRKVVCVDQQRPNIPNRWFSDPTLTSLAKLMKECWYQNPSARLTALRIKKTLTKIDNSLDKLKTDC

[6] = target: Proto-oncogene tyrosine-protein kinase ROS (Homo sapiens, UniProt P08922); test: Inhibition of human recombinant GST tagged-ROS1 using IRF-1Rtide as substrate in presence of ATP by ADP-Glo luminescence kinase assay
[7] = target: Proto-oncogene tyrosine-protein kinase receptor Ret (Homo sapiens, UniProt P07949); test: Inhibition of human recombinant GST tagged-RET using IRF-1Rtide as substrate in presence of ATP by ADP-Glo luminescence kinase assay
[8] = target: T2, Serine/threonine-protein kinase Chk1 (Homo sapiens, UniProt O14757); test: Inhibition of human recombinant CHK1 using CHKtide as substrate in presence of ATP by ADP-Glo luminescence kinase assay
T2 sequence (O14757 whole entry): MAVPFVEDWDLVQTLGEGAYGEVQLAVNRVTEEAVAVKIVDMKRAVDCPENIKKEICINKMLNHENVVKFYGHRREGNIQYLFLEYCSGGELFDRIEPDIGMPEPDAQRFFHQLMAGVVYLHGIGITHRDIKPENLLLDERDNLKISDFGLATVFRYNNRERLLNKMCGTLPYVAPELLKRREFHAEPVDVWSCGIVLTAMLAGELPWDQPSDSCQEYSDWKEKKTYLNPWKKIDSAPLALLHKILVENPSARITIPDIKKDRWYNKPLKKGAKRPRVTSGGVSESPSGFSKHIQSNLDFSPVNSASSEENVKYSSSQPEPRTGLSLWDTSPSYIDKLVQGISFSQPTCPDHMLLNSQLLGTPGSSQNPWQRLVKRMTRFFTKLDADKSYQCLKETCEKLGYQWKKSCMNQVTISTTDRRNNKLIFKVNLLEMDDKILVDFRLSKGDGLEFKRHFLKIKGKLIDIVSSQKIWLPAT

EKVX = test: Antiproliferative activity against human EKVX cells assessed as inhibition of cell viability by MTT assay
KM12 = test: Antiproliferative activity against human KM12 cells assessed as inhibition of cell viability by MTT assay
[9] = target: T3, Activin receptor type-1 (Homo sapiens) (UniProt Q04771); test: Inhibition of ALK2 in human EKVX cells by Western blotting analysis; format: cell-based
T3 sequence (whole entry): T1 sequence (Q04771 whole entry)

[10] = target: Serine/threonine-protein kinase pim-1 (Homo sapiens, UniProt P11309); test: Inhibition of human recombinant full-length PIM1 expressed in baculovirus infected Sf9 cells using S6K as substrate in presence of ATP by ADP-Glo luminescence kinase assay
[11] = Cytotoxicity against human FHCs assessed as inhibition of cell viability by MTT assay; format: toxicity, cell-based; details: FHC cells
[12] = Cytotoxicity against human MCF-10A cells assessed as inhibition of cell viability by MTT assay; format: toxicity, cell-based

Casein kinase II subunit alpha, sequence (P68400 whole entry): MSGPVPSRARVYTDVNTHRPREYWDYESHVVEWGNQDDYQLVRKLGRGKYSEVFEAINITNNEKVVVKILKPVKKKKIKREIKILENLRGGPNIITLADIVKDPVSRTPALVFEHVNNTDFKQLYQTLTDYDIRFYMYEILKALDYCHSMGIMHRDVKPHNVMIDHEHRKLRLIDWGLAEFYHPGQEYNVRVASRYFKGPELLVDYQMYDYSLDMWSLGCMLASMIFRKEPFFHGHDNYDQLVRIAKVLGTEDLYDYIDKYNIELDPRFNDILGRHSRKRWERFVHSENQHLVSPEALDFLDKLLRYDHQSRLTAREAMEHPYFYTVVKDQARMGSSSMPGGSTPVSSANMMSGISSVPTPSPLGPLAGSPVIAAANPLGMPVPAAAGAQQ
Proto-oncogene tyrosine-protein kinase receptor Ret, sequence (P07949 whole entry): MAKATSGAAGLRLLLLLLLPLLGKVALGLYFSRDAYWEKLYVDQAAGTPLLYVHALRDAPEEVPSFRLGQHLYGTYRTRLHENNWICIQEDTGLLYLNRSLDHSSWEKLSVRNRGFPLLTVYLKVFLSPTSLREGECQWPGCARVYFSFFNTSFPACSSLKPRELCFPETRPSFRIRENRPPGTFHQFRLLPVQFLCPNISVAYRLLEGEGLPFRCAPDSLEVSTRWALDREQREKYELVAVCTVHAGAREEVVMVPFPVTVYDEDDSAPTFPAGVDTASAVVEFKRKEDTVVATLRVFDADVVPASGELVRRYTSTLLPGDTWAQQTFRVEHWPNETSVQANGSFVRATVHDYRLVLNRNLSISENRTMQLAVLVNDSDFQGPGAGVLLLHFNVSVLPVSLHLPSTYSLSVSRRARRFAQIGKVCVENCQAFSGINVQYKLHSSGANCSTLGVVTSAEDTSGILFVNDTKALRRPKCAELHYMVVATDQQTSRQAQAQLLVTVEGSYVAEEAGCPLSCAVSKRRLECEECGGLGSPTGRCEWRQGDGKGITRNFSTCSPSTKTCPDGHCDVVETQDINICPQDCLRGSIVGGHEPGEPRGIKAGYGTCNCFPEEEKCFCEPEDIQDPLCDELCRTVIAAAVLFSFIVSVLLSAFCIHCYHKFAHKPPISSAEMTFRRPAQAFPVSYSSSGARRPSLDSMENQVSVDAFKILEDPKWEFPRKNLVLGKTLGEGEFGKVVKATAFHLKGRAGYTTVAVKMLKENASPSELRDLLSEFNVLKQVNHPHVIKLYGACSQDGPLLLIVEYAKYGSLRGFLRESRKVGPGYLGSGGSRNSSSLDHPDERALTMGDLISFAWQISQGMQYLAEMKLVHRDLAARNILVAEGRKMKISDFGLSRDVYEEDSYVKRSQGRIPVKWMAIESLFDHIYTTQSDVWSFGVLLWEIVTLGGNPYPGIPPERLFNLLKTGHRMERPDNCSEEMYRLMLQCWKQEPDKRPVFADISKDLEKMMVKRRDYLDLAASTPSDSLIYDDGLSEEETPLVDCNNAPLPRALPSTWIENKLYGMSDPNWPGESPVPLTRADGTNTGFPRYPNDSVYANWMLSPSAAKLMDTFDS
Proto-oncogene tyrosine-protein kinase ROS, sequence (P08922 whole entry): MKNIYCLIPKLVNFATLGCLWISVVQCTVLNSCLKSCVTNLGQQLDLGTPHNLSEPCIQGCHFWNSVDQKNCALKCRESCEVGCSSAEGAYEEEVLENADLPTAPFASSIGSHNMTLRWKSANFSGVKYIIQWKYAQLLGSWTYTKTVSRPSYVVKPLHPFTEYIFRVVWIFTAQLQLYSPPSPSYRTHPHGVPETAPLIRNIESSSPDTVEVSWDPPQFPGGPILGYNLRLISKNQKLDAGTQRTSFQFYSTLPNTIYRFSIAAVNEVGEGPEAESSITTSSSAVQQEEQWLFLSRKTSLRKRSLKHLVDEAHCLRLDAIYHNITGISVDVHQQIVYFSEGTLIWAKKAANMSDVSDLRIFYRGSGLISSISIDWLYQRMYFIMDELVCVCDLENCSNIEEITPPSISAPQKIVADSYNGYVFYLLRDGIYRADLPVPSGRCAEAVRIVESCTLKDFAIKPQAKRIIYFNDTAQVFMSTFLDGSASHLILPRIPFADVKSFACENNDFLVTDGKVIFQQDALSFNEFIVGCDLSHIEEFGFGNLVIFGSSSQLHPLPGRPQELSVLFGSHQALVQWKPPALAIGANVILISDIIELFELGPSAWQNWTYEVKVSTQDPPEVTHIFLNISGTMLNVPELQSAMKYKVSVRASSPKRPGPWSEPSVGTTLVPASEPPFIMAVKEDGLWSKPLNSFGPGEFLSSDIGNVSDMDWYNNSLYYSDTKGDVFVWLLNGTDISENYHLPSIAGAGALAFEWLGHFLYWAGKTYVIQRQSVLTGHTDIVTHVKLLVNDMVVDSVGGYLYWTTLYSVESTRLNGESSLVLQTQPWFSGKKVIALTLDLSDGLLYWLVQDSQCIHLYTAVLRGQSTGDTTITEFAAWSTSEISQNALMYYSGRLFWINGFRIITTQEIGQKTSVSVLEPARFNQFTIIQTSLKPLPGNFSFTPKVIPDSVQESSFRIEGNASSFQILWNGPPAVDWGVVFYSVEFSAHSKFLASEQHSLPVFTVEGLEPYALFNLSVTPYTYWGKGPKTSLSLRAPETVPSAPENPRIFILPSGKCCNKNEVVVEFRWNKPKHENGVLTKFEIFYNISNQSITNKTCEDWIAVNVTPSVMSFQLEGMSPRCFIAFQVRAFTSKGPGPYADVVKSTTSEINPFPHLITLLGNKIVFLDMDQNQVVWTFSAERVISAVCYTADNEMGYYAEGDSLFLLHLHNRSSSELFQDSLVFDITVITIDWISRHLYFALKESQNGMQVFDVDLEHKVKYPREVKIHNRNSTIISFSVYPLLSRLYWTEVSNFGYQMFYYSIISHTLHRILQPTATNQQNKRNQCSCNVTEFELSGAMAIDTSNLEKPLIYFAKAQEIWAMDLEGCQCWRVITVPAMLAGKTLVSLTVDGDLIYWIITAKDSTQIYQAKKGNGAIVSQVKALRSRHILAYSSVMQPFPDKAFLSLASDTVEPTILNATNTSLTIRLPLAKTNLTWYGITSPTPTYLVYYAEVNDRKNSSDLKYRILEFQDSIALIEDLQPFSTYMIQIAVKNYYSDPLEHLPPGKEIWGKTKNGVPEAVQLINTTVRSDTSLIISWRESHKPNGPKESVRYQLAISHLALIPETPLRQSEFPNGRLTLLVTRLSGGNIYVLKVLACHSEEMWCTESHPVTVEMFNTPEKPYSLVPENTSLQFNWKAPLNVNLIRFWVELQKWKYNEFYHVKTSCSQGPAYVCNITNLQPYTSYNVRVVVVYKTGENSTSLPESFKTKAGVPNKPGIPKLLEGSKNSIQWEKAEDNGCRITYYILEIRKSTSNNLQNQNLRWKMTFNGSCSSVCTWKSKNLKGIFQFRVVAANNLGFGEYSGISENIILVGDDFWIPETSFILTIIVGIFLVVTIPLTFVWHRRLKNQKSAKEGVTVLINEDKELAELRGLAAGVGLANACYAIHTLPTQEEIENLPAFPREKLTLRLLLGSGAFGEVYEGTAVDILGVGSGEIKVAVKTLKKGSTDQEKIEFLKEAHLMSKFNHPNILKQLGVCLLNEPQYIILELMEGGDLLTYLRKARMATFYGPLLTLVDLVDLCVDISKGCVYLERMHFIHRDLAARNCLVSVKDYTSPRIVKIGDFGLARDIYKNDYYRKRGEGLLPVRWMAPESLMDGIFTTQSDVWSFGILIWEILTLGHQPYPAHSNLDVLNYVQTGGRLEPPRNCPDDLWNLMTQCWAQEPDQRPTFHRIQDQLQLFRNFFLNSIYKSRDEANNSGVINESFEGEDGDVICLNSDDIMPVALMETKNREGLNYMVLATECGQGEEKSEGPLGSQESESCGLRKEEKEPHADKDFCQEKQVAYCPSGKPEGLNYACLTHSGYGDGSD
Epidermal growth factor receptor, sequence (P00533 whole entry, the tested form may be a part): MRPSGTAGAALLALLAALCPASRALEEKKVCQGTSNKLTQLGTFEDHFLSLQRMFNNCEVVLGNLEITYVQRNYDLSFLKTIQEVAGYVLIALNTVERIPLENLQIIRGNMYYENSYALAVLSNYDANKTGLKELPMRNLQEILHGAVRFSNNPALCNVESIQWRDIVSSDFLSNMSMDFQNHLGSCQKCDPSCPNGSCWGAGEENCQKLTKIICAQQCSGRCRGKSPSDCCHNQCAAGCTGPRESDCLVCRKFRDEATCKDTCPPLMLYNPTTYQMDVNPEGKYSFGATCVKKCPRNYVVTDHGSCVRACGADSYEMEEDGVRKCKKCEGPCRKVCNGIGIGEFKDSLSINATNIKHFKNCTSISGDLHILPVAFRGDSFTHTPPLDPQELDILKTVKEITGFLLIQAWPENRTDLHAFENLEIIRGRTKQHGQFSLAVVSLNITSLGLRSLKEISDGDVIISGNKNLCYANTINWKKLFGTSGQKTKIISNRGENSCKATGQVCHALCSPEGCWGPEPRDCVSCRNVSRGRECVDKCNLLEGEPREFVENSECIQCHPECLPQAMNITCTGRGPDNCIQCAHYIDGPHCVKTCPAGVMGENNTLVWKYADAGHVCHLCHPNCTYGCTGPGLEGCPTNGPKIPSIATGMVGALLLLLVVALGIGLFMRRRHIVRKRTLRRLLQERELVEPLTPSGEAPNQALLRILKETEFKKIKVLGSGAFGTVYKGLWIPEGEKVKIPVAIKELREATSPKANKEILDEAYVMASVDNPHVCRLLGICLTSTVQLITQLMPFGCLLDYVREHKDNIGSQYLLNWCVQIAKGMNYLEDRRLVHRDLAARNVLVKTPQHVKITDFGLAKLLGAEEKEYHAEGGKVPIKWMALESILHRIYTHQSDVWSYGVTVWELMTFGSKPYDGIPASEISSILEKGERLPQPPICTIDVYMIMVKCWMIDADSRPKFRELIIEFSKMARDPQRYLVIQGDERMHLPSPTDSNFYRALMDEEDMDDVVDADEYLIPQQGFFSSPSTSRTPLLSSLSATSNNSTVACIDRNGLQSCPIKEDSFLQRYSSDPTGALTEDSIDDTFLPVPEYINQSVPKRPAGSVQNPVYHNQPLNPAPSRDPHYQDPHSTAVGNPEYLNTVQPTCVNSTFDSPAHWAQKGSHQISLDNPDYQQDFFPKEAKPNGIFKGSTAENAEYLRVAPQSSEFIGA

Row | Compound | IC50 [2] [nM] | IC50 [4] [nM] | IC50 (Activin receptor type-1) [nM] | IC50 [8] [nM] | further results
1 | CCc1nc(C(N)=O)c(Nc2ccc(N3CCC(N4CCN(C)CC4)CC3)c(OC)c2)nc1NC1CCOCC1 [GILTERITINIB] |  |  |  |  | IC50 [1]: 64 nM
2 | COc1ccc(-c2ccnc3c(-c4noc(C)n4)c(C)nn23)cc1 | 93 | 710 | 37 | 156 | IC50 [3]: 59 nM; IC50 [5]: 106 nM; IC50 [6]: 759 nM; IC50 [7]: 537 nM
3 | Cc1nn2c(-c3ccc(Br)cc3)ccnc2c1/C(N)=N/O | 122 | 590 |  | 74 | 
4 | Cc1nn2c(-c3ccccc3)ccnc2c1/C(N)=N/O | 72 | 1730 |  | 85 | 
5 | O=C(Nc1cnn2ccc(N3CCC[C@@H]3c3cc(F)ccc3F)nc12)N1CC[C@H](O)C1 [LAROTRECTINIB] |  |  |  |  | IC50 (EKVX): 7330 nM; IC50 (KM12): 4680 nM
6 | C[C@H]1Oc2cc(cnc2N)-c2c(nn(C)c2C#N)CN(C)C(=O)c2ccc(F)cc21 [LORLATINIB] |  |  | 29 |  | inhibition [9]: Active
7 | Cc1nn2c(-c3ccc(Cl)cc3)ccnc2c1C#N |  |  | 235 |  | 
8 | Cc1ccc(-c2ccnc3c(C#N)c(C)nn23)cc1 |  |  | 55 |  | 
9 | Cc1nn2c(-c3ccc(Br)cc3)ccnc2c1C#N |  |  | 105 |  | 
10 | Cc1nn2c(-c3ccc(Cl)cc3)ccnc2c1/C(N)=N/O | 217 | 1070 |  | 327 | 
11 | Cc1nc(-c2c(C)nn3c(-c4ccccc4)ccnc23)no1 | 289 | 1290 |  | 119 | 
12 | Cc1nn2c(-c3ccc(Cl)cc3)ccnc2c1C(N)=O |  |  | 182 |  | 
13 | O=c1c(O)c(-c2cc(O)c(O)c(O)c2)oc2cc(O)cc(O)c12 [MYRICETIN] |  |  |  |  | IC50 [10]: 4060 nM
14 | COc1cccc2c1C(=O)c1c(O)c3c(c(O)c1C2=O)C[C@@](O)(C(=O)CO)C[C@@H]3O[C@H]1C[C@H](N)[C@H](O)[C@H](C)O1 [DOXORUBICIN] |  |  |  |  | IC50 [11]: 17600 nM; IC50 [12]: 13400 nM
15 | Cn1cc(-c2cnn3c(N)cc([C@@H]4CCCNC4)nc23)cn1 |  |  |  | 34 | 
16 | Cc1nn2c(-c3ccc(Br)cc3)ccnc2c1C(N)=O |  |  | 354 |  | 

Reference: ChEMBL document CHEMBL5634157, “Design and synthesis of certain 7-Aryl-2-Methyl-3-Substituted Pyrazolo{1,5-a}Pyrimidines as multikinase inhibitors” (Eur J Med Chem, 2023)
